Patent publication US12606541B2, “PPARg modulators and methods of use” (Eisai R&D Management Co., Ltd., priority 2020, dated 2026)
Where two headings read alike, the source gives them in different places.

Key:
His6-TEV-PPARγ-(234-505) = biological target: T1, His6-TEV-PPARγ-(234-505) (Homo sapiens, UniProt P37231); assay: TR-FRET Assay to Measure Co-R Peptide Recruitment to PPARγ; type: biochemical; details: Co-R peptide (SMRT-ID2) recruitment, top final concentration 20 μM, read-out: TR-FRET i-Ag, AC50
T1 construct: The His6-TEV-PPARγ-(234-505) protein for assay was expressed and purified; TEV cleavage site (N); made in house
T1 sequence (P37231 234-505): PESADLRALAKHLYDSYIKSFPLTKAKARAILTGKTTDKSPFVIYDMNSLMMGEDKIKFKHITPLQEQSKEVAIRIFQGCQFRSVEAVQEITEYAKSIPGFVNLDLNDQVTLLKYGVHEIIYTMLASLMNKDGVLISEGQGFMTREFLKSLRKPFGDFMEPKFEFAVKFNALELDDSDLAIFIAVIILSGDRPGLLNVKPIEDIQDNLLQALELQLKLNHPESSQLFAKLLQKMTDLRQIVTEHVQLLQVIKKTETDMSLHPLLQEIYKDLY
Method in brief: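 Corepressor recruitment is measured by adding terbium-labeled anti-His antibody and FITC SMRT-ID2 peptide, at 5 and 200 nM final, after a 20-minute room-temperature protein–compound incubation. After one further hour, signal is converted to percent response between DMSO and 500 nM T0070907 wells.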

UM-UC-9 engineered cells = assay: Cell proliferation / short-term viability assay, CellTiter-Glo 144 h; type: cell-based, human; details: read-out: CTGlo 144 h UMUC9.5, G150
Method in brief: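 Viability read by CellTiter-Glo 2.0 luminescence at day 7 versus DMSO-vehicle wells and a T0 plate measured on day 0. Cells: UM-UC-9 engineered assay-ready stocks, 500 cells/well in high-glucose DMEM with 10% FBS, 37° C, 5% CO2.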

SMILES	AC50 (His6-TEV-PPARγ-(234-505)) [µM]	IC50 (UM-UC-9 engineered cells) [µM]	IC50 (UM-UC-9 engineered cells; Homo sapiens, UM-UC-9, 144 h) [µM]	further results
COc1cc(-c2cc(C(=O)N3CCC(C(=O)NC4CCN(c5ncc(C#N)cn5)C4)CC34CC4)n[nH]2)c(F)cn1 (mixture of isomers) [Example 472, (S)—N—((R)-1-(5-cyanopyrimidin-2-yl)pyrrolidin-3-yl)-4-(5-(5-fluoro-2-methoxypyridin-4-yl)-1H-pyrazole-3-carbonyl)-4-azaspiro[2.5]octane-7-carboxamide and (S)—N—((S)-1-(5-cyanopyrimidin-2-yl)pyrrolidin-3-yl)-4-(5-(5-fluoro-2-methoxypyridin-4-yl)-1H-pyrazole-3-carbonyl)-4-azaspiro[2.5]octane-7-carboxamide]	0.0029	0.0242	–	–
CC(O)c1cc(-c2cc(C(=O)N3CCC(C(=O)NCc4ncc(F)cc4Cl)CC34CC4)n[nH]2)c(F)cn1 (mixture of isomers) [Example 478]	0.0388	0.415	–	–
COc1cc(-c2cc(C(=O)N3CC[C@H](C(=O)NC45CC(C4)N(CC(C)(C)F)C5)CC34CC4)n[nH]2)c(F)cn1 [Example 442, (S)-4-(5-(5-fluoro-2-methoxypyridin-4-yl)-1H-pyrazole-3-carbonyl)-N-(2-(2-fluoro-2-methylpropyl)-2-azabicyclo[2.1.1]hexan-4-yl)-4-azaspiro[2.5]octane-7-carboxamide]	0.399	–	0.583	–
COc1cc(-c2cc(C(=O)N3CCC(C(=O)NC4CCC(C(F)(F)F)CC4)CC3)n[nH]2)c(Cl)cn1 (single isomer, unassigned) [Example 118-B]	–	–	–	AC50 (His6-TEV-PPARγ-(234-505); listed as 118b): 0.964 µM; IC50 (UM-UC-9 engineered cells; listed as 118b): 2.96 µM
COc1cc(-c2cc(C(=O)N3CCC(C(=O)NC4CCN(c5cnnc(C)c5)C4)CC34CC4)n[nH]2)c(F)cn1 (mixture of isomers) [Example 452, (S)-4-(5-(5-fluoro-2-methoxypyridin-4-yl)-1H-pyrazole-3-carbonyl)-N—((S)-1-(6-methylpyridazin-4-yl)pyrrolidin-3-yl)-4-azaspiro[2.5]octane-7-carboxamide and ('S)-4-(5-(5-fluoro-2-methoxypyridin-4-yl)-1H-pyrazole-3-carbonyl)-N—((R)-1-(6-methylpyridazin-4-yl)pyrrolidin-3-yl)-4-azaspiro[2.5]octane-7-carboxamide]	0.0334	2.39	–	–
COc1cc(-c2cc(C(=O)N3CCC(C(=O)NCc4ccc5[nH]c(C)c(C)c5c4)CC3)n[nH]2)c(F)cn1 [Example 272, N-[(2,3-dimethyl-1H-indol-5-yl)methyl]-1-[5-(5-fluoro-2-methoxypyridin-4-yl)-1H-pyrazole-3-carbonyl]piperidine-4-carboxamide]	0.009	–	0.111	–
COc1cc(-c2cc(C(=O)N3CCC(C(=O)NC4COCc5ccccc54)CC3)n[nH]2)c(Cl)cn1 (racemic) [Example 132, 1-(5-(5-chloro-2-methoxypyridin-4-yl)-1H-pyrazole-3-carbonyl)-N-(isochroman-4-yl)piperidine-4-carboxamide]	0.0246	–	0.136	–
COc1cc(-c2cc(C(=O)N3CCC(C(=O)NCc4ncc(N5CCNC6CC65)cn4)CC34CC4)n[nH]2)c(F)cn1 (mixture of isomers) [Example 469, (S)—N-((5-((1S,6R)-2,5-diazabicyclo[4.1.0]heptan-2-yl)pyrimidin-2-yl)methyl)-4-(3-(5-fluoro-2-methoxypyridin-4-yl)-1H-pyrazole-5-carbonyl)-4-azaspiro[2.5]octane-7-carboxamide and (S)—N-((5-((1R,6S)-2,5-diazabicyclo[4.1.0]heptan-2-yl)pyrimidin-2-yl)methyl)-4-(3-(5-fluoro-2-methoxypyridin-4-yl)-1H-pyrazole-5-carbonyl)-4-azaspiro[2.5]octane-7-carboxamide]	0.0785	9.02	–	–
COc1cc(-c2cc(C(=O)N3CCC(C(=O)NCc4nccc(C(F)F)n4)CC3)n[nH]2)c(Cl)cn1 [Example 238, 1-(5-(5-chloro-2-methoxypyridin-4-yl)-1H-pyrazole-3-carbonyl)-N-((4-(difluoromethyl)pyrimidin-2-yl)methyl)piperidine-4-carboxamide]	0.839	–	5.16	–
COc1cc(-c2cc(C(=O)N3CCC(C(=O)NCc4ccc5c(ccn5C)c4)CC3)n[nH]2)c(Cl)cn1 [Example 206, 1-(5-(5-chloro-2-methoxypyridin-4-yl)-1H-pyrazole-3-carbonyl)-N-((1-methyl-1H-indol-5-yl)methyl)piperidine-4-carboxamide]	0.0138	–	0.0866	–
COc1cc(-c2cc(C(=O)N3CCC(C(=O)NC4CC(N5CCC(F)(F)C5)C4(C)C)CC34CC4)n[nH]2)c(F)cn1 (single isomer, unassigned) [Example 355-A]	0.0104	0.0035	–	–
CCN1CC(NC(=O)[C@H]2CCN(C(=O)c3cc(-c4cc(OC)ncc4F)[nH]n3)C3(CC3)C2)CCC12COC2 (stereo partly drawn) [Example 497, (7S)—N-(5-ethyl-2-oxa-5-azaspiro[3.5]nonan-7-yl)-4-(5-(5-fluoro-2-methoxypyridin-4-yl)-1H-pyrazole-3-carbonyl)-4-azaspiro[2.5]octane-7-carboxamide]	0.0877	–	0.645	–
COc1cc(-c2cc(C(=O)N3CCC(C(=O)NCc4c[nH]c5ccccc45)CC3)n[nH]2)c(Cl)cn1 [Example 181, N-((1H-indol-3-yl)methyl)-1-(5-(5-chloro-2-methoxypyridin-4-yl)-1H-pyrazole-3-carbonyl)piperidine-4-carboxamide]	0.0562	–	0.0856	–
COc1cc(-c2cc(C(=O)N3CCC(C(=O)NC(C)c4cccc(Cl)c4)CC3)n[nH]2)c(Cl)cn1 (single isomer, unassigned) [Example 115-B]	–	–	–	AC50 (His6-TEV-PPARγ-(234-505); listed as 115b): 0.0595 µM; IC50 (UM-UC-9 engineered cells; listed as 115b): 0.263 µM
COc1cc(-c2cc(C(=O)N3CCC(NC(=O)C4CCC(O)(C(F)(F)F)CC4)CC34CC4)n[nH]2)c(F)cn1 (mixture of isomers) [Example 347]	0.317	1.86	–	–

Continued, in another order:

AC50 (His6-TEV-PPARγ-(234-505)) [µM]	SMILES	IC50 (UM-UC-9 engineered cells) [µM]	IC50 (UM-UC-9 engineered cells; Homo sapiens, UM-UC-9, 144 h) [µM]	further results
0.0114	COc1cc(-c2cc(C(=O)N3CC[C@H](C(=O)NCc4nccnc4Cl)CC34CC4)n[nH]2)c(F)cn1 [Example 388, (S)—N-((3-chloropyrazin-2-yl)methyl)-4-(5-(5-fluoro-2-methoxypyridin-4-yl)-1H-pyrazole-3-carbonyl)-4-azaspiro[2.5]octane-7-carboxamide]	–	0.0176	–
0.0061	COc1cc(-c2cc(C(=O)N3CC[C@H](C(=O)NCc4cccnc4C(F)(F)F)CC34CC4)[nH]n2)c(F)cn1 [Example 513, (S)-4-(3-(5-fluoro-2-methoxypyridin-4-yl)-1H-pyrazole-5-carbonyl)-N-((2-(trifluoromethyl)pyridin-3-yl)methyl)-4-azaspiro[2.5]octane-7-carboxamide]	0.0154	–	–
0.0198	COc1cc(-c2cc(C(=O)N3CCC(C(=O)N[C@@H]4CCN(c5ccccc5F)C4)CC34CC4)n[nH]2)c(F)cn1 (stereo partly drawn) [Example 296, 4-[5-(5-fluoro-2-methoxypyridin-4-yl)-1H-pyrazole-3-carbonyl]-N—[(R)-1-(2-fluorophenyl)pyrrolidin-3-yl]-4-azaspiro[2.5]octane-7-carboxamide]	–	0.0041	–
0.0067	COc1cc(-c2cc(C(=O)N3CCC(C(=O)NCC45CCC(O)(CC4)C5)CC34CC4)n[nH]2)c(F)cn1 (single isomer, unassigned) [Example 333-B]	0.0332	–	–
0.0051	COc1cc(-c2cc(C(=O)N3CC[C@H](C(=O)NCc4ncccc4Cl)CC34CC4)n[nH]2)c(F)cn1 [Example 358, (S)—N-((3-chloropyridin-2-yl)methyl)-4-(5-(5-fluoro-2-methoxypyridin-4-yl)-1H-pyrazole-3-carbonyl)-4-azaspiro[2.5]octane-7-carboxamide]	–	0.0034	–
0.0626	COc1cc(-c2cc(C(=O)N3CC[C@H](C(=O)NC4CCNC4)CC34CC4)n[nH]2)c(F)cn1 (stereo partly drawn) [Example 471, (7S)-4-(5-(5-fluoro-2-methoxypyridin-4-yl)-1H-pyrazole-3-carbonyl)-N-(pyrrolidin-3-yl)-4-azaspiro[2.5]octane-7-carboxamide]	–	> 10	–
0.0078	COc1cc(-c2cc(C(=O)N3CC[C@H](C(=O)NC4CCC(C(F)(F)F)C(O)C4)CC34CC4)n[nH]2)c(F)cn1 (single isomer, unassigned) [Example 501-A]	0.0214	–	–
0.262	COc1cc(-c2cc(C(=O)N3CCC(C(=O)NCc4ncccc4F)CC3)n[nH]2)c(Cl)cn1 [Example 146, 1-(5-(5-chloro-2-methoxypyridin-4-yl)-1H-pyrazole-3-carbonyl)-N-((3-fluoropyridin-2-yl)methyl)piperidine-4-carboxamide]	–	1.41	–
0.0232	COc1cc(-c2cc(C(=O)N3CC[C@H](C(=O)Nc4cnn5cc(C(C)O)ccc45)CC34CC4)n[nH]2)c(F)cn1 (single isomer, unassigned) [Example 495-A]	0.287	–	–
